The results in this text go back to patent US20040038862A1, “Identification of new therapeutic targets for modulating bile acid synthesis” (priority 2003, published 2004).

One data set has as its target T1, rodent FXR (Mus musculus, UniProt Q60641).
T1 construct: expressed in transfected cells; host or cells: CV-1
T1 sequence (Q60641 1-488): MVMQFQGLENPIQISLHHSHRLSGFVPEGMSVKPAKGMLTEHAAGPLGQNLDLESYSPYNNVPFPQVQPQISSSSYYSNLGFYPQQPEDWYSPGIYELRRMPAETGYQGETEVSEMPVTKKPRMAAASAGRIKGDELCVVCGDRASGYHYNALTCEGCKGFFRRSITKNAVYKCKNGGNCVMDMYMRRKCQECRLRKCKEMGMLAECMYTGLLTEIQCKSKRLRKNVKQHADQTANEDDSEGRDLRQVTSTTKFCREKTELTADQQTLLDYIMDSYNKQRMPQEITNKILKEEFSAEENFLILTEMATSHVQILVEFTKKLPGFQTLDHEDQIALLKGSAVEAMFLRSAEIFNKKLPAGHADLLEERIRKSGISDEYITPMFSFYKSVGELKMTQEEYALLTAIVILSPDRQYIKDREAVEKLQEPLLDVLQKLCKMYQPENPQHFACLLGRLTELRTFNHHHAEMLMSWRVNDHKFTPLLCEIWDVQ
As to the kind of experiment: FXR transactivation in transfected CV-1 cells, hsp70 ecdysone receptor response element reporter. The format is cell-based. An excerpt: The full-length coding regions for human LRH-1 (GenBank AB019246) and human SHP-1 (GenBank L76571) were amplified by PCR and cloned into pSG5, creating pSG5-hLRH-1 and pSG5-hSHP-1, respectively. A consensus Kozak sequence was created during amplification. […] Underlined residues are those which have been mutated from the wild-type sequence. […] VP16-nuclear receptor chimeras contained the 80-amino acid herpes virus VP16 transactivation domain linked to the nuclear receptor ligand binding domain in a modified pSG5 expression vector.
Transient transfection of CV-1 cells was performed as described previously (Jones, S. A. et al. 2000. Mol. Endocrinol. 14:27-39). Typically, transfection mixes contained 2-5 ng receptor expression vector, 20 ng reporter construct, and 8 ng p -actin-SPAP. The amount of DNA used in each transfection was adjusted to 80 ng with carrier plasmid (pBluescript, Stratagene, La Jolla, Calif.). Cells were maintained for 24 hours in the presence of drug (added as a 1000× stock in dimethyl sulfoxide) in DMEM/F-12 nutrient mixture containing 10% charcoal-stripped, delipidated calf serum. An aliquot of medium was assayed for SPAP activity and the cells lysed prior to determination of luciferase expression. Luciferase activities were normalized to SPAP. […]

Data set [1] has as its system CYP7A expression. Kind of data set: Liver CYP7A expression in treated rats. The data set is classed as in vivo, rat. Conditions: 30 mg/kg by gavage twice a day for 7 days. As for the experimental part:
This decrease was still measurable despite the fact that the animals had been maintained on a normal light cycle and sacrificed during the daytime when CYP7A levels are known to be quite low.
(§1) Male Fisher rats were obtained from Charles River Laboratories Inc. (Raleigh, N.C.) and maintained on a 12 hour light/12 hour dark cycle. Animals were allowed food and chow ad libitum. […] Livers were excised and snap-frozen in liquid nitrogen. Differential gene expression analysis was performed by Curagen Corp. (New Haven, Conn.).

Data set [2] relates to SHP-1 expression. As to the kind of experiment: Liver SHP-1 expression in treated rats. The data set is classed as in vivo, rat. The following applies: 30 mg/kg by gavage twice a day for 7 days. As for the experimental part: Direct regulation of SHP-1 by FXR was confirmed in experiments in HepG2 cells transfected with an FXR expression plasmid and reporter plasmids under the control of either the rat or human SHP-1 promoter.
as §1

Data set [3] deals with CYP7A expression. As to the kind of experiment: CYP7A expression in primary human hepatocytes (Northern blot). The data set is classed as cell-based. The following applies: 48 hours; GW4064 0.1-10 μM, chenodeoxycholic acid 1-100 μM. As for the experimental part:
(§2) Primary human hepatocytes and rat hepatocytes (1.5×10^6 cells) were cultured on […]-coated six well plates in serum-free Williams' E medium supplemented with 100 nM dexamethasone, 100 U/ml penicillin G, 100 μg/ml streptomycin, and insulin-transferrin-selenium (ITS-G, Life Technologies, Inc., Gaithersburg, Md.). […] Control cultures received vehicle alone. Cells were cultured for a further 48 hours prior to harvest and total RNA isolated using a commercially available reagent (Trizol, Life Technologies Inc., Gaithersburg, Md.) according to the manufacturer's instructions. Total RNA (10 μg) was resolved on a 1% agarose/2.2 M formaldehyde denaturing gel and transferred to a nylon membrane (Hybond N+, Amersham Pharmacia Biotech Inc., Piscataway, N.J.). Blots were hybridized with ^32p-labeled cDNAs corresponding to human SHP-1, human CYP7A (bases 99 to 1564, GenBank M93133), mouse SHP-1 (bases 30 to 783, GenBank L76567), or rat CYP7A (bases 235 to 460, GenBank J05460). The SHP-1 cDNA used in these experiments encodes the full-length human SHP-1 protein (amino acids 1-260) as described in Seol et al. (1996 Science 272:1336), Subsequently, blots were stripped and reprobed with a radiolabeled -actin cDNA (Clontech, Palo Alto, Calif.).

Data set [4] deals with SHP-1 expression. Kind of data set: SHP-1 expression in primary human hepatocytes (Northern blot). The format is cell-based. The following applies: 48 hours; GW4064 0.1-10 μM, chenodeoxycholic acid 1-100 μM. The protocol:
Control cultures received vehicle alone. Cells were cultured for a further 48 hours prior to harvest and total RNA isolated using a commercially available reagent (Trizol, Life Technologies Inc., Gaithersburg, Md.) according to the manufacturer's instructions. Total RNA (10 μg) was resolved on a 1% agarose/2.2 M formaldehyde denaturing gel and transferred to a nylon membrane (Hybond N+, Amersham Pharmacia Biotech Inc., Piscataway, N.J.). Blots were hybridized with ^32p-labeled cDNAs corresponding to human SHP-1, human CYP7A (bases 99 to 1564, GenBank M93133), mouse SHP-1 (bases 30 to 783, GenBank L76567), or rat CYP7A (bases 235 to 460, GenBank J05460). The SHP-1 cDNA used in these experiments encodes the full-length human SHP-1 protein (amino acids 1-260) as described in Seol et al. (1996 Science 272:1336), Subsequently, blots were stripped and reprobed with a radiolabeled -actin cDNA (Clontech, Palo Alto, Calif.).

The subject of data set [5] is SHP-1 expression. As to the kind of experiment: SHP-1 expression in primary rat hepatocytes (Northern blot). The format is cell-based. Conditions: 48 hours; GW4064 0.1-10 μM. As for the experimental part:
as §2

The subject of the next data set is rat SHP-1 promoter. Kind of data set: SHP-1 promoter reporter in HepG2 cells transfected with FXR expression plasmid. The data set is classed as cell-based.
For another data set, the system named is human SHP-1 promoter. The data set is described as above. The data set is classed as cell-based.

Molecules are shown by their SMILES. “Also recorded” adds a separate entry of the source.

By EC50 is commonly meant the concentration that produces a half-maximal response. Low values mean greater potency, high ones weaker potency. Turning to `CC(C)c1onc(-c2c(Cl)cccc2Cl)c1COc1ccc(/C=C/c2cccc(C(=O)O)c2)c(Cl)c1` [GW4064], it took 80 nM to reach a half-maximal effect at rodent FXR (EC50). In the data set with CYP7A expression [1], the “CYP7A expression levels versus vehicle treated rats” value is given as “decrease in CYP7A expression levels”. The “SHP-1 expression in liver RNA versus vehicle-treated rats” value with SHP-1 expression [2] is reported as “six-fold increase”. For the same compound, the “CYP7A expression in human hepatocytes” value with CYP7A expression [3] is “decrease CYP7A expression in a dose dependent fashion; also recorded: repressed CYP7A expression at the same concentrations that were required for induction of SHP-1 expression”. The “SHP-1 expression in human hepatocytes” value in the data set on SHP-1 expression [4] is listed as “markedly increased SHP-1 expression in a dose-dependent manner”. For the same compound, the “SHP-1 expression in rat hepatocytes” value with SHP-1 expression [5] is on record as “markedly increased SHP-1 expression in a dose-dependent manner”. The “reporter activity, rat SHP-1 promoter” value in the data set with rat SHP-1 promoter is listed as “marked induction of reporter activity”. Further, the “reporter activity, human SHP-1 promoter” value with human SHP-1 promoter was “marked induction of reporter activity”.
As for `C[C@H](CCC(=O)O)[C@H]1CC[C@H]2[C@@H]3[C@H](O)C[C@@H]4C[C@H](O)CC[C@]4(C)[C@H]3CC[C@]12C` [chenodeoxycholic acid, reference compound], the “CYP7A expression in human hepatocytes” value in the data set on CYP7A expression [3] was “repressed CYP7A expression at the same concentrations that were required for induction of SHP-1 expression”. Moreover, the “SHP-1 expression in human hepatocytes” value in the data set on SHP-1 expression [4] is given as “much less potent than GW4064”.
